Broadly, the Ki is a measure of affinity in units of concentration, obtained from inhibition or displacement.

Experiment [1] deals with Sigma non-opioid intracellular receptor 1 (Rattus norvegicus, UniProt Q9R0C9). Kind of experiment: Binding affinity for sigma-1 receptor by displacing [3H]-(+) pentazocine.
For another experiment, the target named is Sigma 2 receptor. Briefly: Binding affinity for sigma-2 receptor by displacing [3H]DTG in presence of dextrallorphan. Further details: species or system Rattus norvegicus.

Sigma non-opioid intracellular receptor 1, sequence (Q9R0C9 whole entry): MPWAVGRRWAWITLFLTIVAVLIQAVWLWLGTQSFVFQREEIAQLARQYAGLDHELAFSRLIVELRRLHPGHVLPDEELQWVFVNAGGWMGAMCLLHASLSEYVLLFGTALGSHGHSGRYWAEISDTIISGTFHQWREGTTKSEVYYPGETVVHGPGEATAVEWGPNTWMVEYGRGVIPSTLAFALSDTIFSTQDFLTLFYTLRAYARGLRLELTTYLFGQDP

For the compound `c1ccc(CCN2CCN(c3ccccn3)CC2)cc1`, the Ki in experiment [1] was found to be 326 nM; at Sigma 2 receptor it was 119 nM.

Take `CC1CCCN(CCc2ccccc2)C1` (stereo not given): the Ki was determined as 4.15 nM in experiment [1] and 84.4 nM on Sigma 2 receptor.

As for `c1ccc(CCCN2CCN(c3ccccn3)CC2)cc1`, the Ki is 82.9 nM in experiment [1] and 4.91 nM on Sigma 2 receptor.

Turning to `c1ccc(CCCN2CCc3ccccc3C2)cc1`, the results for the Ki (in experiment [1]; at Sigma 2 receptor) were 13.9 nM and 14.2 nM, respectively.

Consider `c1ccc(CCN2CCc3ccccc3C2)cc1`, for which the Ki in experiment [1] was 5.9 nM; at Sigma 2 receptor it was 57.3 nM.

`CC1CCCN(CCCc2ccccc2)C1` (stereo not given): the Ki in experiment [1] stood at 5.25 nM; on Sigma 2 receptor, 6.61 nM.

Consider `c1ccc(CCCN2CCCCC2)cc1`, for which the Ki in experiment [1] was determined as 143 nM; on Sigma 2 receptor it was 25 nM.

As for `CC1CCN(CCc2ccccc2)CC1`, the values for the inhibition constant Ki (in experiment [1]; at Sigma 2 receptor) were 20.9 nM and 33.3 nM, respectively.

In the case of `CC1CCN(CCCc2ccccc2)CC1`, the inhibitory constant (Ki) in experiment [1] is 3.35 nM; on Sigma 2 receptor, 12.1 nM.

Take `c1ccc(CCN2CCCCC2)cc1` [1-PHENETHYLPIPERIDINE]: the Ki in experiment [1] amounted to 88.5 nM; at Sigma 2 receptor, 112 nM.
